The values that follow come from BindingDB's records for doi:10.1016/s0960-894x(99)00014-1 (Zeria Pharmaceutical, 1999).

This test is described as follows: In vitro thromboxane A2 antagonistic activity on aggregation of rabbit platelets induced by U-46,619 (4 uM).
For `O=C(O)c1ccc2c(c1)CC(CCNS(=O)(=O)c1ccc(Cl)cc1)C2` (stereo unspecified) [Sodium; 2-[2-(4-chloro-benzenesulfonylamino)-ethyl]-indan-5-carboxylate], 7760 nM corresponded to half-maximal inhibition (IC50). Turning to `O=C(O)c1ccc2c(c1)CC(CCCNS(=O)(=O)c1ccc(Cl)cc1)C2` (stereo unspecified) [Sodium; 2-[3-(4-chloro-benzenesulfonylamino)-propyl]-indan-5-carboxylate], the 50% inhibitory concentration (IC50) (as a rule, the concentration at which inhibition is half-maximal) worked out at 6600 nM. The same measure for `O=C(O)c1ccc2c(c1)CC(CCCCNS(=O)(=O)c1ccc(Cl)cc1)C2` (stereo unspecified) [Sodium; 2-[4-(4-chloro-benzenesulfonylamino)-butyl]-indan-5-carboxylate]: 100000 nM; for `O=C(O)c1ccc2c(c1)CC(CNS(=O)(=O)c1ccc(Cl)cc1)C2` (stereo unspecified) [Sodium; 2-[(4-chloro-benzenesulfonylamino)-methyl]-indan-5-carboxylate]: 1320 nM. `O=C(O)CCc1ccc2c(c1)CC(CNS(=O)(=O)c1ccc(Cl)cc1)C2` (stereo unspecified) [Sodium; 3-{2-[(4-chloro-benzenesulfonylamino)-methyl]-indan-5-yl}-propionate] showed an IC50 of 160 nM.

In turn, `O=C(O)CCCc1ccc2c(c1)CC(CNS(=O)(=O)c1ccc(Cl)cc1)C2` (stereo unspecified) [Sodium; 4-{2-[(4-chloro-benzenesulfonylamino)-methyl]-indan-5-yl}-butyrate] had a half-maximal inhibitory concentration (IC50) of 1340 nM.

On to `O=C(O)CCCCc1ccc2c(c1)CC(CNS(=O)(=O)c1ccc(Cl)cc1)C2` (stereo unspecified) [Sodium; 5-{2-[(4-chloro-benzenesulfonylamino)-methyl]-indan-5-yl}-pentanoate], for which the IC50 is 2880 nM. The same measure for `O=C(O)Cc1ccc2c(c1)CC(NS(=O)(=O)c1ccc(Cl)cc1)C2` (stereo unspecified) [Sodium; [2-(4-chloro-benzenesulfonylamino)-indan-5-yl]-acetate]: 360 nM. The same measure for `O=C(O)Cc1ccc2c(c1)CC(CNS(=O)(=O)c1ccccc1)C2` (stereo unspecified) [Sodium; [2-(benzenesulfonylamino-methyl)-indan-5-yl]-acetate]: 1020 nM; for `O=C(O)Cc1ccc2c(c1)CC(CNS(=O)(=O)C1CCCCC1)C2` (stereo unspecified) [Sodium; [2-(cyclohexanesulfonylamino-methyl)-indan-5-yl]-acetate]: 17800 nM. For `O=C(O)Cc1ccc2c(c1)CC(CNS(=O)(=O)Cc1ccccc1)C2` (stereo unspecified) [Sodium; [2-(phenylmethanesulfonylamino-methyl)-indan-5-yl]-acetate] the value was more than 100000 nM.

As for `O=C(O)Cc1ccc2c(c1)CC(CCNS(=O)(=O)c1ccc(Cl)cc1)C2` (stereo unspecified) [Sodium; {2-[2-(4-chloro-benzenesulfonylamino)-ethyl]-indan-5-yl}-acetate], the IC50 is 1480 nM.

As to `O=C(O)Cc1ccc2c(c1)CC(CCCNS(=O)(=O)c1ccc(Cl)cc1)C2` (stereo unspecified) [Sodium; {2-[3-(4-chloro-benzenesulfonylamino)-propyl]-indan-5-yl}-acetate], the concentration for half-maximal inhibition (IC50) was 72300 nM. `O=C(O)Cc1ccc2c(c1)CC(CCCCNS(=O)(=O)c1ccc(Cl)cc1)C2` (stereo unspecified) [Sodium; {2-[4-(4-chloro-benzenesulfonylamino)-butyl]-indan-5-yl}-acetate] registered an IC50 of more than 100000 nM. In the case of `O=C(O)Cc1ccc2c(c1)CC(CNS(=O)(=O)c1ccc(Cl)cc1)O2` (stereo unspecified) [Sodium; {2-[(4-chloro-benzenesulfonylamino)-methyl]-2,3-dihydro-benzofuran-5-yl}-acetate], the midpoint of inhibition, the IC50, lay at 320 nM.

Take `O=C(O)Cc1ccc2c(c1)CC(CNS(=O)(=O)c1ccc(Cl)cc1)C2` (stereo unspecified) [Sodium; {2-[(4-chloro-benzenesulfonylamino)-methyl]-indan-5-yl}-acetate]: it took 360 nM to reach half-maximal inhibition (IC50). With `O=C(O)Cc1ccc2c(c1)CC(CNS(=O)(=O)c1cccc3ccccc13)C2` (stereo unspecified) [Sodium; {2-[(naphthalene-1-sulfonylamino)-methyl]-indan-5-yl}-acetate], the IC50 worked out at 47900 nM. Compound `O=C(O)Cc1ccc2c(c1)CC(CNS(=O)(=O)c1ccc3ccccc3c1)C2` (stereo unspecified) [Sodium; {2-[(naphthalene-2-sulfonylamino)-methyl]-indan-5-yl}-acetate] yielded an IC50 of 950 nM. Compound `CCCCCS(=O)(=O)NCC1Cc2ccc(CC(=O)O)cc2C1` (stereo unspecified) [Sodium; {2-[(pentane-1-sulfonylamino)-methyl]-indan-5-yl}-acetate] showed an IC50 of 77600 nM. On to `O=C(O)Cc1ccc2c(c1)CC(CNS(=O)(=O)c1cccnc1)C2` (stereo unspecified) [Sodium; {2-[(pyridine-3-sulfonylamino)-methyl]-indan-5-yl}-acetate], for which the IC50 is more than 100000 nM.

Turning to `O=C(O)Cc1ccc2c(c1)CC(CNS(=O)(=O)c1cccs1)C2` (stereo unspecified) [Sodium; {2-[(thiophene-2-sulfonylamino)-methyl]-indan-5-yl}-acetate], the IC50 was 2810 nM.
